# Experiments:
# Test in all cases: relative viability (nuclei count vs DMSO), 5 days (fraction); higher = more cells survive
# [1] = compound: COc1cc(Nc2c(C#N)cnc3cc(OCCCN4CCN(C)CC4)c(OC)cc23)c(Cl)cc1Cl [Bosutinib]
# Summary of the method: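 Vehicle-anchored 1536-well plates of lung cancer cell lines, held overnight at 37 °C, were pinned with five library-drug doses (not always all listed) spaced by √10. No medium change followed over the next 5 days, after which the cells were fixed, permeabilised and Hoechst-stained together and imaged at 4×. Nuclei were counted with MetaXpress, and viability is treated-well nuclei over vehicle-well nuclei, taken as a median across plates. Plates passed with control CV below 25% and at least one doubling.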
# [2] = compound: COc1cc(Nc2c(C#N)cnc3cc(OCCCN4CCN(C)CC4)c(OC)cc23)c(Cl)cc1Cl [Bosutinib] + Cc1nc(NC(=O)N2CCC[C@H]2C(N)=O)sc1-c1ccnc(C(C)(C)C(F)(F)F)c1 [Alpelisib] (partner 2 µM)
# Summary of the method: (§1)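 The day after seeding in 1536-well plates, lung cancer cell lines were treated by pin tool with a single drug, or with a fixed anchor-drug dose together with five library-drug doses (not always all listed) in √10 steps. After 5 days, a combined fix-and-stain solution (final 0.05% Triton X-100, 1% formaldehyde, 1 ug/ml Hoechst) was added. Nuclei counted on 4× images gave relative viability as treated counts over vehicle counts, reported as the median of duplicate plates.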
# [3] = compound: COc1cc(Nc2c(C#N)cnc3cc(OCCCN4CCN(C)CC4)c(OC)cc23)c(Cl)cc1Cl [Bosutinib] + O=C(c1cc(Cc2n[nH]c(=O)c3ccccc23)ccc1F)N1CCN(C(=O)C2CC2)CC1 [Olaparib] (partner 8 µM)
# Summary of the method: as §1
# [4] = compound: COc1cc(Nc2c(C#N)cnc3cc(OCCCN4CCN(C)CC4)c(OC)cc23)c(Cl)cc1Cl [Bosutinib] + CS(=O)(=O)CCNCc1ccc(-c2ccc3ncnc(Nc4ccc(OCc5cccc(F)c5)c(Cl)c4)c3c2)o1 [Lapatinib] (partner 2 µM)
# Summary of the method: as §1
# [5] = compound: COc1cc(Nc2c(C#N)cnc3cc(OCCCN4CCN(C)CC4)c(OC)cc23)c(Cl)cc1Cl [Bosutinib] + CS(=O)(=O)N1CCN(Cc2cc3nc(-c4cccc5[nH]ncc45)nc(N4CCOCC4)c3s2)CC1 [Pictilisib] (partner 1 µM)
# Summary of the method: as §1
# [6] = compound: COc1cc(Nc2c(C#N)cnc3cc(OCCCN4CCN(C)CC4)c(OC)cc23)c(Cl)cc1Cl [Bosutinib] + C[C@]1(O)C[C@@H](c2nc(-c3ccc4ccc(-c5ccccc5)nc4c3)c3c(N)nccn32)C1 [Linsitinib] (partner 1 µM)
# Summary of the method: as §1
# [7] = compound: COc1cc(Nc2c(C#N)cnc3cc(OCCCN4CCN(C)CC4)c(OC)cc23)c(Cl)cc1Cl [Bosutinib] + COc1cc2c(Oc3ccc(NC(=O)C4(C(=O)Nc5ccc(F)cc5)CC4)cc3F)ccnc2cc1OCCCN1CCOCC1 [Foretinib] (partner 0.25 µM)
# Summary of the method: as §1
# [8] = compound: COc1cc(Nc2c(C#N)cnc3cc(OCCCN4CCN(C)CC4)c(OC)cc23)c(Cl)cc1Cl [Bosutinib] + C[C@@H](Oc1cc(-c2cnn(C3CCNCC3)c2)cnc1N)c1c(Cl)ccc(F)c1Cl [Crizotinib] (partner 1 µM)
# Summary of the method: as §1
# [9] = compound: COc1cc(Nc2c(C#N)cnc3cc(OCCCN4CCN(C)CC4)c(OC)cc23)c(Cl)cc1Cl [Bosutinib] + CC1(C)CCC(c2ccc(Cl)cc2)=C(CN2CCN(c3ccc(C(=O)NS(=O)(=O)c4ccc(N[C@H](CCN5CCOCC5)CSc5ccccc5)c(S(=O)(=O)C(F)(F)F)c4)cc3)CC2)C1 [Navitoclax] (partner 0.5 µM)
# Summary of the method: as §1
# [10] = compound: COc1cc(Nc2c(C#N)cnc3cc(OCCCN4CCN(C)CC4)c(OC)cc23)c(Cl)cc1Cl [Bosutinib] + CC(C)C[C@H](NC(=O)[C@H](Cc1ccccc1)NC(=O)c1cnccn1)B(O)O [Bortezomib] (partner 0.002 µM)
# Summary of the method: as §1
# [11] = compound: COc1cc(Nc2c(C#N)cnc3cc(OCCCN4CCN(C)CC4)c(OC)cc23)c(Cl)cc1Cl [Bosutinib] + COc1cccc2cc(-c3nc([C@H]4CC[C@H](C(=O)O)CC4)n4ncnc(N)c34)[nH]c12 [OSI-027] (partner 0.5 µM)
# Summary of the method: as §1
# [12] = compound: COc1cc(Nc2c(C#N)cnc3cc(OCCCN4CCN(C)CC4)c(OC)cc23)c(Cl)cc1Cl [Bosutinib] + Nc1nc2[nH]cc(CCc3ccc(C(=O)N[C@@H](CCC(=O)O)C(=O)O)cc3)c2c(=O)[nH]1 [Pemetrexed] (partner 0.2 µM)
# Summary of the method: as §1
# [13] = compound: COc1cc(Nc2c(C#N)cnc3cc(OCCCN4CCN(C)CC4)c(OC)cc23)c(Cl)cc1Cl [Bosutinib] + CCNC(=O)c1noc(-c2cc(C(C)C)c(O)cc2O)c1-c1ccc(CN2CCOCC2)cc1 [Luminespib] (partner 0.01 µM)
# Summary of the method: as §1
# [14] = compound: COc1cc(Nc2c(C#N)cnc3cc(OCCCN4CCN(C)CC4)c(OC)cc23)c(Cl)cc1Cl [Bosutinib] + N=C(N)NC(=N)NCCc1ccccc1 [Phenformin] (partner 250 µM)
# Summary of the method: as §1
# [15] = compound: COc1cc(Nc2c(C#N)cnc3cc(OCCCN4CCN(C)CC4)c(OC)cc23)c(Cl)cc1Cl [Bosutinib] + Cc1nc(Nc2ncc(C(=O)Nc3c(C)cccc3Cl)s2)cc(N2CCN(CCO)CC2)n1 [Dasatinib] (partner 0.075 µM)
# Summary of the method: as §1
# [16] = compound: COc1cc(Nc2c(C#N)cnc3cc(OCCCN4CCN(C)CC4)c(OC)cc23)c(Cl)cc1Cl [Bosutinib] + Cc1cc(Nc2cc(N3CCN(C)CC3)nc(Sc3ccc(NC(=O)C4CC4)cc3)n2)n[nH]1 [Tozasertib] (partner 0.1 µM)
# Summary of the method: as §1
cell line,measurement,setting,value
NCI-H1299,relative viability,[1]; 0.01 µM,1.01
same,relative viability,[1]; 0.03162 µM,1.01
same,relative viability,[1]; 0.1 µM,1.03
same,relative viability,[1]; 1 µM,1.02
same,relative viability,[2]; first compound 0.01 µM,1.05
same,relative viability,[2]; first compound 0.03162 µM,1.03
same,relative viability,[2]; first compound 0.1 µM,1.05
same,relative viability,[2]; first compound 1 µM,1.2
same,relative viability,[3]; first compound 0.01 µM,1
same,relative viability,[3]; first compound 0.03162 µM,0.982
same,relative viability,[3]; first compound 0.1 µM,0.994
same,relative viability,[3]; first compound 1 µM,0.96
same,relative viability,[4]; first compound 0.01 µM,0.969
same,relative viability,[4]; first compound 0.03162 µM,0.99
same,relative viability,[4]; first compound 0.1 µM,0.903
same,relative viability,[4]; first compound 1 µM,0.916
same,relative viability,[5]; first compound 0.01 µM,0.777
same,relative viability,[5]; first compound 0.03162 µM,0.989
same,relative viability,[5]; first compound 0.1 µM,0.858
same,relative viability,[5]; first compound 1 µM,0.515
same,relative viability,[6]; first compound 0.01 µM,1.05
same,relative viability,[6]; first compound 0.03162 µM,0.983
same,relative viability,[6]; first compound 0.1 µM,1.07
same,relative viability,[6]; first compound 1 µM,0.92
same,relative viability,[7]; first compound 0.01 µM,1.16
same,relative viability,[7]; first compound 0.03162 µM,1.14
same,relative viability,[7]; first compound 0.1 µM,1.13
same,relative viability,[7]; first compound 1 µM,0.989
same,relative viability,[8]; first compound 0.01 µM,0.947
same,relative viability,[8]; first compound 0.03162 µM,1
same,relative viability,[8]; first compound 0.1 µM,0.965
same,relative viability,[8]; first compound 1 µM,0.942
same,relative viability,[9]; first compound 0.01 µM,1.05
same,relative viability,[9]; first compound 0.03162 µM,1.06
same,relative viability,[9]; first compound 0.1 µM,0.995
same,relative viability,[9]; first compound 1 µM,1.03
same,relative viability,[10]; first compound 0.01 µM,1
same,relative viability,[10]; first compound 0.03162 µM,1.06
same,relative viability,[10]; first compound 0.1 µM,1.01
same,relative viability,[10]; first compound 1 µM,1
NCI-H1563,relative viability,[1]; 0.01 µM,1.05
same,relative viability,[1]; 0.03162 µM,0.906
same,relative viability,[1]; 0.1 µM,0.928
same,relative viability,[1]; 1 µM,0.713
same,relative viability,[2]; first compound 0.01 µM,0.905
same,relative viability,[2]; first compound 0.03162 µM,0.904
same,relative viability,[2]; first compound 0.1 µM,0.859
same,relative viability,[2]; first compound 1 µM,0.63
same,relative viability,[11]; first compound 0.01 µM,0.794
same,relative viability,[11]; first compound 0.03162 µM,0.831
same,relative viability,[11]; first compound 0.1 µM,0.761
same,relative viability,[11]; first compound 1 µM,0.717
same,relative viability,[12]; first compound 0.01 µM,0.655
same,relative viability,[12]; first compound 0.03162 µM,0.771
same,relative viability,[12]; first compound 0.1 µM,0.772
same,relative viability,[12]; first compound 1 µM,0.638
same,relative viability,[13]; first compound 0.01 µM,0.516
same,relative viability,[13]; first compound 0.03162 µM,0.535
same,relative viability,[13]; first compound 0.1 µM,0.54
same,relative viability,[13]; first compound 1 µM,0.521
same,relative viability,[4]; first compound 0.01 µM,0.869
same,relative viability,[4]; first compound 0.03162 µM,0.931
same,relative viability,[4]; first compound 0.1 µM,0.84
same,relative viability,[4]; first compound 1 µM,0.758
same,relative viability,[5]; first compound 0.01 µM,0.611
same,relative viability,[5]; first compound 0.03162 µM,0.607
same,relative viability,[5]; first compound 0.1 µM,0.613
same,relative viability,[5]; first compound 1 µM,0.526
same,relative viability,[6]; first compound 0.01 µM,1.24
same,relative viability,[6]; first compound 0.03162 µM,1.2
same,relative viability,[6]; first compound 0.1 µM,1.06
same,relative viability,[6]; first compound 1 µM,0.792
same,relative viability,[14]; first compound 0.01 µM,0.65
same,relative viability,[14]; first compound 0.03162 µM,0.635
same,relative viability,[14]; first compound 0.1 µM,0.617
same,relative viability,[14]; first compound 1 µM,0.573
same,relative viability,[7]; first compound 0.01 µM,0.917
same,relative viability,[7]; first compound 0.03162 µM,0.953
same,relative viability,[7]; first compound 0.1 µM,0.846
same,relative viability,[7]; first compound 1 µM,0.676
same,relative viability,[8]; first compound 0.01 µM,0.896
same,relative viability,[8]; first compound 0.03162 µM,0.753
same,relative viability,[8]; first compound 0.1 µM,0.753
same,relative viability,[8]; first compound 1 µM,0.658
same,relative viability,[15]; first compound 0.01 µM,0.444
same,relative viability,[15]; first compound 0.03162 µM,0.47
same,relative viability,[15]; first compound 0.1 µM,0.446
same,relative viability,[15]; first compound 1 µM,0.472
same,relative viability,[10]; first compound 0.01 µM,0.885
same,relative viability,[10]; first compound 0.03162 µM,0.775
same,relative viability,[10]; first compound 0.1 µM,0.784
same,relative viability,[10]; first compound 1 µM,0.659
NCI-H1623,relative viability,[1]; 0.01 µM,0.891
same,relative viability,[1]; 0.03162 µM,0.95
same,relative viability,[1]; 0.1 µM,0.979
same,relative viability,[1]; 1 µM,0.724
same,relative viability,[16]; first compound 0.01 µM,0.474
same,relative viability,[16]; first compound 0.03162 µM,0.425
same,relative viability,[16]; first compound 0.1 µM,0.428
same,relative viability,[16]; first compound 1 µM,0.399
same,relative viability,[11]; first compound 0.01 µM,0.432
same,relative viability,[11]; first compound 0.03162 µM,0.418
same,relative viability,[11]; first compound 0.1 µM,0.45
same,relative viability,[11]; first compound 1 µM,0.416
same,relative viability,[13]; first compound 0.01 µM,0.645
same,relative viability,[13]; first compound 0.03162 µM,0.565
same,relative viability,[13]; first compound 0.1 µM,0.517
same,relative viability,[13]; first compound 1 µM,0.497
same,relative viability,[14]; first compound 0.01 µM,0.534
same,relative viability,[14]; first compound 0.03162 µM,0.591
same,relative viability,[14]; first compound 0.1 µM,0.51
same,relative viability,[14]; first compound 1 µM,0.51
same,relative viability,[7]; first compound 0.01 µM,0.854
same,relative viability,[7]; first compound 0.03162 µM,0.846
same,relative viability,[7]; first compound 0.1 µM,0.866
same,relative viability,[7]; first compound 1 µM,0.64
same,relative viability,[15]; first compound 0.01 µM,0.38
same,relative viability,[15]; first compound 0.03162 µM,0.555
same,relative viability,[15]; first compound 0.1 µM,0.542
same,relative viability,[15]; first compound 1 µM,0.57

# — the supplement of paper PMC10307832
